Measured values: patent EP0764149B1, “NOVEL FARNESYL TRANSFERASE INHIBITORS, THEIR PREPARATION AND PHARMACEUTICAL COMPOSITIONS CONTAINING SAME” (RHONE-POULENC RORER S.A., priority 1994, dated 1995)
pIC50: −log10 of the molar value. Like-named read-outs stand apart in the source and are kept apart here.

Legend:
[1] = target: T1, farnésyltransférase humaine (Homo sapiens, UniProt P49354+P49356); assay: Farnesyltransferase inhibition: transfer of (3H) farnesyl from (3H) FPP to p21 H-Ras; type: biochemical; conditions: read-out: Activité inhibitrice IC50
T1 construct: farnésyltransférase humaine purifiée à partir de cultures de cellules THP1; endogenous in cells; host or cells: THP1 cell cultures (enzyme purified from them)
Description: L'activité farnésyltransférase est déterminée par la quantité de (^3H) farnésyl transférée à partir du (^3H) farnésylpyrophosphate [(^3H) FPP) sur la protéine p21 H-Ras. Le mélange réactionnel standard est composé, pour un volume final de 60 µl, de Tris-HCl 50mM, MgCl2 5mM, dithiotréitol 5 mM, octyl-β-D-glucopyranoside 0,2 %, p21 H-ras 200 picomoles, (^3H) FPP (à 61000 dpm/picomole) 4,5 picomoles.
La réaction est initiée par addition d'environ 5 ng de farnésyltransférase humaine purifiée à partir de cultures de cellules THP1. Après incubation pendant 20 minutes à 37°C en plaque de microtitration contenant 96 trous de 1 cm3 par plaque (Titer Plate®, Beckman), la réaction est stoppée par addition de 0,4 cm3 de SDS à 0,1 % dans le méthanol à 0°C. Le mélange est ensuite additionné de 0,4 cm3 d'acide trichloroacétique (TCA) à 30 % dans le méthanol. Les plaques sont laissées pendant 1 heure dans la glace. Le contenu précipité est alors retenu sur membrane en fibre de verre Filtermat®, Pharmacia) avec l'unité de filtration (Combi Cell Harvester®, Skatron) et rincé avec de l'acide trichloroacétique à 6 % dans l'eau distillée. Les membranes sont séchées au four à micro-ondes puis imprégnées de scintillant par fusion sous air chaud de Meltilex® (Pharmacia) et enfin comptées en cpm dans un compteur β-Plate® (LKB). Chaque essai est répété 3 fois.
L'unité d'activité est définie par 1 picomole de (^3H) FPP transférée sur p21 H-Ras en 20 minutes.
Les pourcentages d'inhibition sont obtenus par comparaison des essais avec et sans inhibiteur après déduction des blancs, les IC50 étant mesurées à partir des inhibitions obtenues avec 9 concentrations différentes en utilisant les logiciels Enzfitter® ou Grafit®.

[2] = test system: farnésylation de la protéine Ras; assay: Inhibition of Ras protein farnesylation in THAC cells (Triton X114 extraction, Western blot); type: cell-based; conditions: 24 h culture, read-out: % d'inhibition sur cellules (THAC)
Excerpt: La lignée cellulaire est la lignée THAC (cellules CCL 39 transfectées par Ha-Ras activé) selon K. Seuwen et coll., EMBO J., 7(1) 161-168 (1988). Les cellules sont ensemencées dans des boîtes de Petri de 6 cm de diamètre contenant un milieu DMEM, sérum de veau foetal 5 %, G418 1 %.
Après 24 heures de culture, le milieu de culture est changé (avec ou sans sérum) et le produit à étudier est ajouté en solution dans le diméthylformamide (DMF), en présence ou en absence de DTT (concentrations finales de 0,5 % en DMF et 0,1mM en DTT). Après 24 heures de culture à 37°C, les cellules sont lysées dans 1 cm3 de tampon de lyse (Tris, HCI 20mM, Triton X114 1 %, MgCl2 5 mM, DIT 7 mM, NaCl 150 mM, pH = 7,4). Les lysats sont clarifiés par centrifugation à 4.000 tours/minute pendant 10 minutes. L'extraction par le Triton X114 permet de séparer la protéine Ras farnésylée de la protéine Ras non farnésylée [C. BORDIER, J. Biol. Chem., 256 (4), 1604-1607 (1981)]. La protéine Ras farnésylée qui est plus hydrophobe se trouve dans la phase détergente tandis que la protéine Ras non farnésylée est dans la phase aqueuse. Les échantillons sont dénaturés par chauffage à 95°C dans du tampon de dénaturation pour électrophorèse et déposées sur un gel de polyacrylamide à 14 %. Lorsque le colorant atteint le bas du gel, les protéines du gel sont transférées sur une membrane PVDF. […]

For `CSCC[C@H](NC(=O)c1cccc2c(NC(=O)[C@@H](N)CS)cccc12)C(=O)O` [Exemple 1, N-[5-(2(R)-amino-3-mercapto-propionylamino)-naphthyl-1-carbonyl}-L-méthionine], the pIC50 ([1]; unit inferred) was 7.32.
`CSCC[C@H](NC(=O)c1cccc2c(NC[C@@H](N)CS)cccc12)C(=O)O` [Exemple 3, N-[5-(2(R)-amino-3-mercapto-propylamino)-naphthyl-1-carbonyl]-L-méthionine] was tested, and the pIC50 ([1]; unit inferred) was 8.25.
`CCCC[C@H](NC(=O)c1cccc2c(NC[C@@H](N)CS)cccc12)C(=O)O` [Exemple 5, N-[5-(2(R)-amino-3-mercapto-propylamino)-naphthyl-1 carbonyl]-L-norleucine] was tested, and the pIC50 ([1]; unit inferred) was 7.16.
`CSCC[C@H](NC(=O)c1cccc2c(NC[C@@H](N)CS)cccc12)C(=O)OCc1ccccc1` [Exemple 8, ester benzyliquede la N-[5-(2(R)-amino-3-mercapto-propylamino)-naphtyl-1-carbonyl]-L-méthionine] gave a pIC50 ([1]; unit inferred) of 7.00.
`COCCOCCOC(=O)[C@H](CCSC)NC(=O)c1cccc2c(NC[C@@H](N)CS)cccc12` [Exemple 9, ester 2-(2-méthoxyéthoxy) éthyliquede la N-[5-(2(R)-amino-3-mercapto-propylamino)-naphtyl-1-carbonyl]-L-méthionine] showed a pIC50 ([1]; unit inferred) of 7.15.
`CSCC[C@H](NC(=O)c1cccc2c(NC[C@@H](N)CS)cccc12)C(=O)OCCS(=O)(=O)c1ccccc1` [Exemple 10] gave a pIC50 ([1]; unit inferred) of 7.68.
`CSCC[C@H](NC(=O)c1cccc2cc(NC[C@@H](N)CS)ccc12)C(=O)O` [Exemple 19, N-[6-(2(R)-amino-3-mercapto-propylamino)-naphtyl-1-carbonyl]-L-méthionine] gave a pIC50 ([1]; unit inferred) of 8.74 and an inhibition at 50 µM ([2]; à 50 µM) of 31%.
Work on `COC(=O)[C@H](CCSC)NC(=O)c1cccc2cc(NC[C@@H](N)CS)ccc12` [Exemple 20, ester méthyliquede la N-[6-(2(R)-amino-3-mercapto-propylamino)-naphtyl-1-carbonyl]-L-méthionine] yielded a pIC50 ([1]; unit inferred) of 7.10 and an inhibition at 10 µM ([2]; à 10 µM) of 50%.
With `CS(=O)(=O)CC[C@H](NC(=O)c1cccc2cc(NC[C@@H](N)CS)ccc12)C(=O)O` [Exemple 21, acide 2(S)-[6-(2(R)-amino-3-mercapto-propylamino)-1-naphtoylamino]-4-méthylsulfonyl-butanoïque] the pIC50 [1] was 8.40.
